Like-named read-outs stand apart in the source and are kept apart here.
What was measured:
Assay in all cases: microbe, parasite or virus in culture
Type in all cases: cell-based, Hepatitis C virus (HCV)
HCV replicon 1A = conditions: Replicon Assay A
How it was run: (§1)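 HCV replicon RNA levels were quantified by TaqMan RT-PCR after 3-day compound exposure (0.5% DMSO, 5% FBS). Cyclophilin RNA, co-amplified in the same reaction, served as endogenous control; Ct values were converted to RNA amounts using linear regression standard curves.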

HCV replicon 2B = conditions: Replicon Assay A
How it was run: as §1

HCV replicon 1AY93H = conditions: Replicon Assay A
How it was run: as §1

HCV replicon 1B = conditions: Replicon Assay B
HCV replicon 1AQ30D = conditions: Replicon Assay B
[1] = read-out: 2B IC50, HCV replicon 2B
[2] = read-out: 1A Y93H IC50, HCV replicon 1A Y93H
[3] = read-out: 1A Q30D IC50, HCV replicon 1A Q30D
[4] = Hepatitis C virus, read-out: 2B IC50 (nM), replicon 2B
[5] = Hepatitis C virus, read-out: 1A Y93H IC50 (nM), replicon 1AY93H
[6] = replicon 1AY93H, read-out: 1A Y93H IC50
[7] = replicon 1AQ30D, read-out: 1A Q30D IC50
[8] = Hepatitis C virus, HCV replicon 1B
[9] = read-out: 1A Q30D IC50, replicon 1AQ30D

| SMILES | IC50 (HCV replicon 1A; HCV replicon 1A) | IC50 (HCV replicon 2B; [1]) | IC50 (HCV replicon 1AY93H; [2]) | IC50 (HCV replicon 1B; HCV replicon 1B) | IC50 (HCV replicon 1AQ30D; [3]) | IC50 (HCV replicon 1A; replicon 1A) | IC50 (HCV replicon 1B; replicon 1B) | also measured |
| --- | --- | --- | --- | --- | --- | --- | --- | --- |
| COC(=O)N[C@H](C(=O)N1CCC[C@H]1c1ncc(-c2cc(F)c3c(c2)OC(c2cc4c(s2)CCC4)n2c-3cc3cc(-c4cnc([C@@H]5CCCN5C(=O)[C@@H](NC(=O)OC)C5CCOCC5)[nH]4)ccc32)[nH]1)C(C)C (single isomer, unassigned) [Compound 622] | 2.4 pM | 0.0068 nM | 0.0044 nM | 2.2 pM | 0.0594 nM | – | – | – |
| COC(=O)N[C@H](C(=O)N1C2CC2C[C@H]1c1ncc(-c2cc(F)c3c(c2)OC(c2ccc(C4CC4)s2)n2c-3cc3cc(-c4cnc([C@@H]5CCCN5C(=O)[C@@H](NC(=O)OC)C5C[C@@H](C)O[C@@H](C)C5)[nH]4)ccc32)[nH]1)C(C)C (single isomer, unassigned) [Compound 557] | 3.1 pM | 0.0151 nM | 0.00464 nM | 2.49 pM | 0.041 nM | – | – | – |
| COC(=O)NC(C(=O)N1CCC[C@H]1c1ncc(-c2ccc3c(c2)cc2n3C(c3ccc(C4CCC4)s3)Oc3cc(-c4cnc([C@@H]5CCCN5C(=O)[C@@H](NC(=O)OC)C(C)C)[nH]4)cc(F)c3-2)[nH]1)C1C[C@@H](C)O[C@@H](C)C1 (some centres unmarked) [Compound 374] | – | – | – | – | – | – | – | IC50 (HCV replicon 1A; Hepatitis C virus, replicon 1A): 1.5 pM; IC50 (HCV replicon 2B; [4]): 0.0041 nM; IC50 (HCV replicon 1AY93H; [5]): 0.0035 nM; IC50 (HCV replicon 1B; Hepatitis C virus, replicon 1B): 2.2 pM; IC50 (HCV replicon 1AQ30D; Hepatitis C virus, read-out: 1A Q30D IC50 (nM), replicon 1AQ30D): 0.0221 nM |
| COC(=O)N[C@H](C(=O)N1CCC[C@H]1c1ncc(-c2cc(F)c3c(c2)OC(c2ccc(C4CC4)s2)n2c-3cc3cc(-c4cnc([C@@H]5CCCN5C(=O)[C@@H](NC(=O)OC)C(C)C)[nH]4)ccc32)[nH]1)C(C)C (single isomer, unassigned) [Compound 6] | – | – | – | – | – | 1.9 pM | 1.5 pM | IC50 (HCV replicon 2B; replicon 2B, read-out: 2B IC50): 0.028 nM; IC50 (HCV replicon 1AY93H; [6]): 0.011 nM; IC50 (HCV replicon 1AQ30D; [7]): 0.32 nM |
| COC(=O)N[C@H](C(=O)N1CCC[C@H]1c1ncc(-c2cc(C)c3c(c2)OC(c2ccc(C4CC4)s2)n2c-3cc3cc(-c4cnc([C@@H]5C[C@H]6C[C@H]6N5C(=O)[C@@H](NC(=O)OC)C(C)C)[nH]4)ccc32)[nH]1)C(C)C (single isomer, unassigned) [Compound 754] | – | 0.039 nM | 0.042 nM | – | 0.433 nM | – | – | IC50 (HCV replicon 1A; Hepatitis C virus, HCV replicon 1A): 2.4 pM; IC50 (HCV replicon 1B; [8]): 2.6 pM |
| CCc1ccc(C2Oc3cc(-c4cnc([C@@H]5CCCN5C(=O)[C@@H](NC(=O)OC)C(C)C)[nH]4)ccc3-c3c(F)c4cc(-c5cnc([C@@H]6CCCN6C(=O)C(NC(=O)OC)C6C[C@@H](C)O[C@@H](C)C6)[nH]5)ccc4n32)s1 (single isomer, unassigned) [Compound 634] | 2.3 pM | 0.027 nM | 0.0149 nM | – | 0.237 nM | – | – | IC50 (HCV replicon 1B; [8]): 1.5 pM |
| COC(=O)NC(C(=O)N1CCC[C@H]1c1ncc(-c2cc(F)c3c(c2)OC(c2ccc(C4CCC4)s2)n2c-3cc3cc(-c4cnc([C@@H]5CCCN5C(=O)[C@@H](NC(=O)OC)C5CCOCC5)[nH]4)ccc32)[nH]1)C(C)(C)F (single isomer, unassigned) [Compound 251] | – | – | – | – | – | 1.2 pM | 2.5 pM | IC50 (HCV replicon 2B; read-out: 2B IC50, replicon 2B): 0.1 nM; IC50 (HCV replicon 1AY93H; read-out: 1A Y93H IC50, replicon 1AY93H): 0.06 nM; IC50 (HCV replicon 1AQ30D; [9]): 0.4 nM |
| COC(=O)N[C@H](C(=O)N1CCC[C@H]1c1ncc(-c2cc(C)c3c(c2)OC(c2ccc(C4CC4)s2)n2c-3cc3cc(-c4cnc([C@@H]5CCCN5C(=O)[C@@H](NC(=O)OC)C(C)C)[nH]4)ccc32)[nH]1)C(C)C (single isomer, unassigned) [Compound 751] | 3.3 pM | 0.027 nM | 0.51 nM | 29 pM | – | – | – | IC50 (HCV replicon 1AQ30D; Hepatitis C virus, read-out: 1A Q30D IC50, HCV replicon 1A Q30D): 0.996 nM |
| COC(=O)NC(C(=O)N1CCC[C@H]1c1ncc(-c2cc(F)c3c(c2)OC(c2ccc(C)s2)n2c-3cc3cc(-c4cnc([C@@H]5CCCN5C(=O)[C@@H](NC(=O)OC)C5CCOCC5)[nH]4)ccc32)[nH]1)C(C)(C)F (single isomer, unassigned) [Compound 105] | – | – | – | – | – | 1.5 pM | 2.9 pM | IC50 (HCV replicon 2B; replicon 2B, read-out: 2B IC50): 0.012 nM; IC50 (HCV replicon 1AY93H; [6]): 0.01 nM; IC50 (HCV replicon 1AQ30D; [7]): 0.03 nM |
| COC(=O)N[C@H](C(=O)N1CCC[C@H]1c1nc(-c2cc(F)c3c(c2)OC(c2ccc(C)s2)n2c-3cc3cc(-c4cnc([C@@H]5CCCN5C(=O)[C@@H](NC(=O)OC)C5CCOCC5)[nH]4)ccc32)c[nH]1)C(C)C (some centres unmarked) [Compound 58] | – | – | – | – | – | – | – | IC50 (HCV replicon 1A; Hepatitis C virus, replicon 1A): 1.4 pM; IC50 (HCV replicon 2B; [4]): 0.011 nM; IC50 (HCV replicon 1AY93H; [5]): 0.002 nM; IC50 (HCV replicon 1B; Hepatitis C virus, replicon 1B): 3.4 pM; IC50 (HCV replicon 1AQ30D; [9]): 0.041 nM |

— patent US20160257697A1, “THIOPHENE-SUBSTITUTED TETRACYCLIC COMPOUNDS AND METHODS OFUSE THEREOF FOR THE TREATMENT OF VIRAL DISEASES” (priority 2013, published 2016)
